From PubChem BioAssay AID1963441 (Molecular Pharmacology Branch, DTP, NCI, 2024)
Several values for one entry are separate records, joined by “and”; a condition that tells them apart may be missing. Equal entries are not always repeated. Each block holds one compound with its values, some of them ahead of it.

Tested on: NCI-H1876 complex spheroid growth, % test/control
Assay: Anticancer human tumor NCI-H1876 cell line growth inhibition [Asc];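 note: compound exposure lasted 7 days starting three days after seeding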;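 for viability, T/C: 100% = DMSO vehicle control wells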
Details: for viability, T/C: stronger effect = lower value
How it was run: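 Complex spheroids combining tumor cells with HUVEC endothelial cells and human MSCs, at 37 degrees C, 5% CO2; agents tested alone or combined, half-log dilutions from at or near clinical Cmax, or 10 microM if Cmax unknown.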

IC50 (curve of compound): > 10000 nM
SMILES: C#Cc1c(F)ccc2cc(O)cc(-c3ncc4c(N5CC6CCC(C5)N6)nc(OCC56CCCN5CC(F)C6)nc4c3F)c12 (stereo not drawn)
viability, T/C (compound 0.0316 µM): 104% (2×) and 97.2%
viability, T/C (compound 0.1 µM): 82.3% and 98.9% and 99.3%
viability, T/C (compound 0.316 µM): 112% and 115% and 94.7%
viability, T/C (compound 1 µM): 92.9% and 80.2% and 91%
viability, T/C (compound 3.16 µM): 90.2% and 97.4% and 102%
viability, T/C (compound 10 µM): 89.6% (2×) and 88.2%

IC50 (curve of compound): 724 nM and 679 nM and 992 nM
SMILES: COc1c(OCCCN2CCOCC2)ccc2c3n(c(=NC(=O)c4cnc(N)nc4)nc12)CCN3
viability, T/C (compound 0.00316 µM): 106% and 91.5% and 100%
viability, T/C (compound 0.01 µM): 89.7% and 97.9% and 107%
viability, T/C (compound 0.0316 µM): 85% and 84.5% and 99.3%
viability, T/C (compound 0.1 µM): 79.1% and 75.3% and 72%
viability, T/C (compound 0.316 µM): 64.5% and 59.5% and 60.7%
viability, T/C (compound 1 µM): 48.8% and 45.6% and 44.9%

IC50 (curve of first compound, second compound 0.00949 µM): 719 nM
IC50 (curve of first compound, second compound 0.03 µM): 741 nM
IC50 (curve of first compound, second compound 0.0949 µM): 690 nM
IC50 (curve of first compound, second compound 0.3 µM): 718 nM
IC50 (curve of first compound, second compound 0.949 µM): 614 nM
IC50 (curve of first compound, second compound 3 µM): 543 nM
SMILES: COc1c(OCCCN2CCOCC2)ccc2c3n(c(=NC(=O)c4cnc(N)nc4)nc12)CCN3 + CCN1C(C(=O)NC23CCC(C(=O)O)(CC2)CC3)C(c2cccc(Cl)c2F)C2(C(=O)Nc3cc(Cl)ccc32)C12CCCCC2
viability, T/C (second compound 0.00949 µM, first compound 0.00316 µM): 96.8%
viability, T/C (second compound 0.00949 µM, first compound 0.01 µM): 93.6%
viability, T/C (second compound 0.00949 µM, first compound 0.0316 µM): 101%
viability, T/C (second compound 0.00949 µM, first compound 0.1 µM): 72.7%
viability, T/C (second compound 0.00949 µM, first compound 0.316 µM): 66.4%
viability, T/C (second compound 0.00949 µM, first compound 1 µM): 44%
viability, T/C (second compound 0.03 µM, first compound 0.00316 µM): 133%
viability, T/C (second compound 0.03 µM, first compound 0.01 µM): 96%
viability, T/C (second compound 0.03 µM, first compound 0.0316 µM): 94.2%
viability, T/C (second compound 0.03 µM, first compound 0.1 µM): 70.6%
viability, T/C (second compound 0.03 µM, first compound 0.316 µM): 59.8%
viability, T/C (second compound 0.03 µM, first compound 1 µM): 45.8%
viability, T/C (second compound 0.0949 µM, first compound 0.00316 µM): 99.3%
viability, T/C (second compound 0.0949 µM, first compound 0.01 µM): 96.2%
viability, T/C (second compound 0.0949 µM, first compound 0.0316 µM): 90.8%
viability, T/C (second compound 0.0949 µM, first compound 0.1 µM): 77.5%
viability, T/C (second compound 0.0949 µM, first compound 0.316 µM): 67.3%
viability, T/C (second compound 0.0949 µM, first compound 1 µM): 42.1%
viability, T/C (second compound 0.3 µM, first compound 0.00316 µM): 96.8%
viability, T/C (second compound 0.3 µM, first compound 0.01 µM): 96%
viability, T/C (second compound 0.3 µM, first compound 0.0316 µM): 93%
viability, T/C (second compound 0.3 µM, first compound 0.1 µM): 70.6%
viability, T/C (second compound 0.3 µM, first compound 0.316 µM): 65.9%
viability, T/C (second compound 0.3 µM, first compound 1 µM): 44.1%
viability, T/C (second compound 0.949 µM, first compound 0.00316 µM): 108%
viability, T/C (second compound 0.949 µM, first compound 0.01 µM): 105%
viability, T/C (second compound 0.949 µM, first compound 0.0316 µM): 92.4%
viability, T/C (second compound 0.949 µM, first compound 0.1 µM): 75.4%
viability, T/C (second compound 0.949 µM, first compound 0.316 µM): 58.7%
viability, T/C (second compound 0.949 µM, first compound 1 µM): 43.9%
viability, T/C (second compound 3 µM, first compound 0.00316 µM): 106%
viability, T/C (second compound 3 µM, first compound 0.01 µM): 103%
viability, T/C (second compound 3 µM, first compound 0.0316 µM): 81.2%
viability, T/C (second compound 3 µM, first compound 0.1 µM): 80.1%
viability, T/C (second compound 3 µM, first compound 0.316 µM): 64.7%
viability, T/C (second compound 3 µM, first compound 1 µM): 35.7%

IC50 (curve of first compound, second compound 0.00316 µM): > 300 nM
IC50 (curve of first compound, second compound 0.01 µM): > 300 nM
IC50 (curve of first compound, second compound 0.0316 µM): > 300 nM
IC50 (curve of first compound, second compound 0.1 µM): > 300 nM
IC50 (curve of first compound, second compound 0.316 µM): > 300 nM
IC50 (curve of first compound, second compound 1 µM): > 300 nM
SMILES: NC(=O)C(=Cn1cnc(-c2cc(C(F)(F)F)cc(C(F)(F)F)c2)n1)c1cncnc1 + CNC(C)C(=O)NC1CN(S(=O)(=O)c2cccc(S(=O)(=O)N3CCC4CCC(C(=O)NC(c5ccccc5)c5ccccc5)N4C(=O)C(NC(=O)C(C)NC)C3)c2)CCC2CCC(C(=O)NC(c3ccccc3)c3ccccc3)N2C1=O
viability, T/C (second compound 0.00316 µM, first compound 0.000949 µM): 110%
viability, T/C (second compound 0.00316 µM, first compound 0.003 µM): 92.8%
viability, T/C (second compound 0.00316 µM, first compound 0.00949 µM): 91.9%
viability, T/C (second compound 0.00316 µM, first compound 0.03 µM): 83.8%
viability, T/C (second compound 0.00316 µM, first compound 0.0949 µM): 100%
viability, T/C (second compound 0.00316 µM, first compound 0.3 µM): 105%
viability, T/C (second compound 0.01 µM, first compound 0.000949 µM): 93.4%
viability, T/C (second compound 0.01 µM, first compound 0.003 µM): 90.6%
viability, T/C (second compound 0.01 µM, first compound 0.00949 µM): 96.6%
viability, T/C (second compound 0.01 µM, first compound 0.03 µM): 92.4%
viability, T/C (second compound 0.01 µM, first compound 0.0949 µM): 108%
viability, T/C (second compound 0.01 µM, first compound 0.3 µM): 98.2%
viability, T/C (second compound 0.0316 µM, first compound 0.000949 µM): 91.4%
viability, T/C (second compound 0.0316 µM, first compound 0.003 µM): 102%
viability, T/C (second compound 0.0316 µM, first compound 0.00949 µM): 92.4%
viability, T/C (second compound 0.0316 µM, first compound 0.03 µM): 92.5%
viability, T/C (second compound 0.0316 µM, first compound 0.0949 µM): 104%
viability, T/C (second compound 0.0316 µM, first compound 0.3 µM): 94%
viability, T/C (second compound 0.1 µM, first compound 0.000949 µM): 86.2%
viability, T/C (second compound 0.1 µM, first compound 0.003 µM): 93.9%
viability, T/C (second compound 0.1 µM, first compound 0.00949 µM): 93.5%
viability, T/C (second compound 0.1 µM, first compound 0.03 µM): 104%
viability, T/C (second compound 0.1 µM, first compound 0.0949 µM): 102%
viability, T/C (second compound 0.1 µM, first compound 0.3 µM): 103%
viability, T/C (second compound 0.316 µM, first compound 0.000949 µM): 95.6%
viability, T/C (second compound 0.316 µM, first compound 0.003 µM): 96.9%
viability, T/C (second compound 0.316 µM, first compound 0.00949 µM): 88.6%
viability, T/C (second compound 0.316 µM, first compound 0.03 µM): 90.1%
viability, T/C (second compound 0.316 µM, first compound 0.0949 µM): 100%
viability, T/C (second compound 0.316 µM, first compound 0.3 µM): 91.5%
viability, T/C (second compound 1 µM, first compound 0.000949 µM): 96.8%
viability, T/C (second compound 1 µM, first compound 0.003 µM): 93.6%
viability, T/C (second compound 1 µM, first compound 0.00949 µM): 102%
viability, T/C (second compound 1 µM, first compound 0.03 µM): 95.9%
viability, T/C (second compound 1 µM, first compound 0.0949 µM): 104%
viability, T/C (second compound 1 µM, first compound 0.3 µM): 86.3%
